Laboratory results: ChEMBL document CHEMBL5715260, “Selectivity Literature for EUbOPEN Chemogenomic Library” (2024)
Blank lines part the entries; values can stand above or below the compound they belong to.

Key:
[1] = biological target: T1, Nuclear receptor subfamily 2 group C member 1 (Homo sapiens) (UniProt P13056); settings: screened at recom. conc., Selectivity number of off-targets 1.0, Selectivity number of targets 5.0, Source Knowledge inhouse
T1 sequence (whole entry): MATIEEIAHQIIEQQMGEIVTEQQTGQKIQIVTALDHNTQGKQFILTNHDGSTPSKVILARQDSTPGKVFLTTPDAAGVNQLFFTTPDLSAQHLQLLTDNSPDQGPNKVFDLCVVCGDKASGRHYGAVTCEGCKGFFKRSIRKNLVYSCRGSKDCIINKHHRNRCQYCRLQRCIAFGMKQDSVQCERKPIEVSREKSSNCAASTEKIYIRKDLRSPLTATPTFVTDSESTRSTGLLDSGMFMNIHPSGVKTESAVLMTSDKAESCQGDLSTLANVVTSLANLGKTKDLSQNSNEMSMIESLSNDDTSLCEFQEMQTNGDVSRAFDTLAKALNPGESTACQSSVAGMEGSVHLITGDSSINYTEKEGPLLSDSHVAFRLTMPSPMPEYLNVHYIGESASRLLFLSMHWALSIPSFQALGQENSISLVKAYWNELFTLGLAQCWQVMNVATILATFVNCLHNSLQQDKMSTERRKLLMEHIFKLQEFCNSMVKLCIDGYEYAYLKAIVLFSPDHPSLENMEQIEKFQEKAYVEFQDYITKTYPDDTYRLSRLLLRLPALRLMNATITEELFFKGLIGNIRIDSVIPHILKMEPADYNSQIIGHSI

[2] = biological target: Nuclear receptor subfamily 2 group E member 1 (Homo sapiens) (UniProt Q9Y466)
[3] = biological target: T2, Alpha trans-inducing protein (Human alphaherpesvirus 1) (UniProt A0A5J6DW59); experiment: Selectivity interaction (Reporter gene assay) EUB0001161a UL48; parameters: recommended concentration 10 uM
[4] = biological target: Steroidogenic factor 1 (Homo sapiens) (UniProt Q13285); experiment: Selectivity interaction (Reporter gene assay) EUB0001161a NR5A1; parameters: recommended concentration 10 uM
[5] = biological target: Nuclear receptor ROR-alpha (Homo sapiens) (UniProt P35398); settings: screened at recom. conc., Selectivity number of off-targets 1.0, Selectivity number of targets 19.0, Source Knowledge inhouse
[6] = biological target: Nuclear receptor subfamily 4immunitygroup A member 1 (Homo sapiens) (UniProt P22736)
[7] = biological target: T3, Hepatocyte nuclear factor 4-alpha (Homo sapiens) (UniProt P41235)
T3 sequence (whole entry): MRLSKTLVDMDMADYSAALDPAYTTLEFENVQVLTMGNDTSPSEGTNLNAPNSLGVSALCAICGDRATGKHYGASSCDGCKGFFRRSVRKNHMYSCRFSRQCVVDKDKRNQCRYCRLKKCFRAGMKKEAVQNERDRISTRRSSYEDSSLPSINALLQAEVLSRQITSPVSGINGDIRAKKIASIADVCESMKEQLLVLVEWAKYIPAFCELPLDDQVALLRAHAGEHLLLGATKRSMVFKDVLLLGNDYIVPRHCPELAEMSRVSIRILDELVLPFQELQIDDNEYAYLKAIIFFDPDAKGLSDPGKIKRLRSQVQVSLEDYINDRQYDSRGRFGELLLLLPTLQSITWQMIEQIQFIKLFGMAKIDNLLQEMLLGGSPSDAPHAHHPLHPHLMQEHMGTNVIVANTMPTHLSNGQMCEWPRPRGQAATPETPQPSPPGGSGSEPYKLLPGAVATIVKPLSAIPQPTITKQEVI

[8] = biological target: T4, Retinoic acid receptor RXR-alpha (Homo sapiens) (UniProt P19793); experiment: Selectivity interaction (Reporter gene assay) EUB0001157a RXRA; parameters: recommended concentration 10 uM; settings: reference bexarotene 1 uM, Selectivity number of off-targets 0.0, Selectivity number of targets 1.0, Source Knowledge inhouse
T4 sequence (whole entry): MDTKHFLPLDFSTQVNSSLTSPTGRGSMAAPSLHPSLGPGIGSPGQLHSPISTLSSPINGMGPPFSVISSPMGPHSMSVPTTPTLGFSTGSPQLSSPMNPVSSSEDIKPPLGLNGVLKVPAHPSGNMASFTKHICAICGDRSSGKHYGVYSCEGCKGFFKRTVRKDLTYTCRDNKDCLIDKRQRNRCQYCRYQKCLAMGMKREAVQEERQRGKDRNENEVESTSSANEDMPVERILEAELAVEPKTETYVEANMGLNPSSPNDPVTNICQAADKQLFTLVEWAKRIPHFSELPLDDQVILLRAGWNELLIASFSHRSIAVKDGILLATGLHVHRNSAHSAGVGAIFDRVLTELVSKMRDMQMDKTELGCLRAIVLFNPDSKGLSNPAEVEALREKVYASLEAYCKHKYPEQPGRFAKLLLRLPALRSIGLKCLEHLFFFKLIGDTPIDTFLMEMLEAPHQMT

[9] = biological target: T3, Hepatocyte nuclear factor 4-alpha (Homo sapiens); experiment: Selectivity interaction (Reporter gene assay) EUB0001157a HNF4A; parameters: recommended concentration 10 uM
[10] = biological target: T2, Alpha trans-inducing protein (Human alphaherpesvirus 1); experiment: Selectivity interaction (Reporter gene assay) EUB0001157a UL48; parameters: recommended concentration 10 uM
[11] = biological target: Nuclear receptor subfamily 4immunitygroup A member 1 (Homo sapiens) (UniProt P22736); experiment: Selectivity interaction (Reporter gene assay) EUB0001157a NR4A1; parameters: recommended concentration 10 uM
[12] = biological target: Steroidogenic factor 1 (Homo sapiens) (UniProt Q13285); experiment: Selectivity interaction (Reporter gene assay) EUB0001157a NR5A1; parameters: recommended concentration 10 uM
[13] = biological target: T1, Nuclear receptor subfamily 2 group C member 1 (Homo sapiens); experiment: Selectivity interaction (Reporter gene assay) EUB0001157a NR2C1; parameters: recommended concentration 10 uM
[14] = biological target: Nuclear receptor subfamily 2 group E member 1 (Homo sapiens) (UniProt Q9Y466); experiment: Selectivity interaction (Reporter gene assay) EUB0001157a NR2E1; parameters: recommended concentration 10 uM
[15] = biological target: T1, Nuclear receptor subfamily 2 group C member 1 (Homo sapiens); experiment: Selectivity interaction (Reporter gene assay) EUB0001168a NR2C1; parameters: recommended concentration 1 uM
[16] = biological target: T3, Hepatocyte nuclear factor 4-alpha (Homo sapiens); experiment: Selectivity interaction (Reporter gene assay) EUB0001168a HNF4A; parameters: recommended concentration 1 uM
[17] = biological target: Nuclear receptor subfamily 4immunitygroup A member 1 (Homo sapiens) (UniProt P22736); experiment: Selectivity interaction (Reporter gene assay) EUB0001168a NR4A1; parameters: recommended concentration 1 uM
[18] = biological target: Steroidogenic factor 1 (Homo sapiens) (UniProt Q13285); experiment: Selectivity interaction (Reporter gene assay) EUB0001168a NR5A1; parameters: recommended concentration 1 uM
[19] = biological target: T5, Oxysterols receptor LXR-beta (Homo sapiens) (UniProt P55055); experiment: Selectivity interaction (Reporter gene assay) EUB0001168a NR1H2; parameters: recommended concentration 1 uM; settings: screened at recom. conc., Selectivity number of off-targets 1.0, Selectivity number of targets 19.0, Source Knowledge inhouse
T5 sequence (whole entry): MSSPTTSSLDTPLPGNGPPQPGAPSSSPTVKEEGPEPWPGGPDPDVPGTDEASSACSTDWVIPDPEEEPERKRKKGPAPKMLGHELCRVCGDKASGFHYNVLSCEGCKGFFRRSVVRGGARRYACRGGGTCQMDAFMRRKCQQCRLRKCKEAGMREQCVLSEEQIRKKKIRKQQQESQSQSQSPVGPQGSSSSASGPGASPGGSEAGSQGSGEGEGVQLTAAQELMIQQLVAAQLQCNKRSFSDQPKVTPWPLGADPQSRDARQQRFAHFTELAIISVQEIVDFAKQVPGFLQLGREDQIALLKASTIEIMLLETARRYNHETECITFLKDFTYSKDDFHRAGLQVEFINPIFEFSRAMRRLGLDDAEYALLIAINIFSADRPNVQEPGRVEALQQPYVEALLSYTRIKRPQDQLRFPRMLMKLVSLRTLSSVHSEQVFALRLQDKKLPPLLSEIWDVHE

[20] = biological target: T4, Retinoic acid receptor RXR-alpha (Homo sapiens); experiment: Selectivity interaction (Reporter gene assay) EUB0001168a RXRA; parameters: recommended concentration 1 uM; settings: reference bexarotene 1 uM, Selectivity number of off-targets 0.0, Selectivity number of targets 1.0, Source Knowledge inhouse
[21] = biological target: T2, Alpha trans-inducing protein (Human alphaherpesvirus 1); experiment: Selectivity interaction (Reporter gene assay) EUB0001168a UL48; parameters: recommended concentration 1 uM
[22] = biological target: Nuclear receptor subfamily 2 group E member 1 (Homo sapiens) (UniProt Q9Y466); experiment: Selectivity interaction (Reporter gene assay) EUB0001168a NR2E1; parameters: recommended concentration 1 uM
[23] = biological target: Steroidogenic factor 1 (Homo sapiens) (UniProt Q13285); experiment: Selectivity interaction (Reporter gene assay) EUB0001167a NR5A1; parameters: recommended concentration 1 uM
[24] = biological target: T4, Retinoic acid receptor RXR-alpha (Homo sapiens); experiment: Selectivity interaction (Reporter gene assay) EUB0001167a RXRA; parameters: recommended concentration 1 uM; settings: reference bexarotene 1 uM, Selectivity number of off-targets 0.0, Selectivity number of targets 1.0, Source Knowledge inhouse
[25] = biological target: Nuclear receptor subfamily 2 group E member 1 (Homo sapiens) (UniProt Q9Y466); experiment: Selectivity interaction (Reporter gene assay) EUB0001167a NR2E1; parameters: recommended concentration 1 uM
[26] = biological target: T1, Nuclear receptor subfamily 2 group C member 1 (Homo sapiens); experiment: Selectivity interaction (Reporter gene assay) EUB0001167a NR2C1; parameters: recommended concentration 1 uM
[27] = biological target: T2, Alpha trans-inducing protein (Human alphaherpesvirus 1); experiment: Selectivity interaction (Reporter gene assay) EUB0001167a UL48; parameters: recommended concentration 1 uM
[28] = biological target: Nuclear receptor subfamily 4immunitygroup A member 1 (Homo sapiens) (UniProt P22736); experiment: Selectivity interaction (Reporter gene assay) EUB0001167a NR4A1; parameters: recommended concentration 1 uM
[29] = biological target: T3, Hepatocyte nuclear factor 4-alpha (Homo sapiens); experiment: Selectivity interaction (Reporter gene assay) EUB0001167a HNF4A; parameters: recommended concentration 1 uM
[30] = biological target: T3, Hepatocyte nuclear factor 4-alpha (Homo sapiens); experiment: Selectivity interaction (Reporter gene assay) EUB0001160a HNF4A; parameters: recommended concentration 1 uM
[31] = biological target: Nuclear receptor subfamily 2 group E member 1 (Homo sapiens) (UniProt Q9Y466); experiment: Selectivity interaction (Reporter gene assay) EUB0001160a NR2E1; parameters: recommended concentration 1 uM
[32] = biological target: Nuclear receptor subfamily 4immunitygroup A member 1 (Homo sapiens) (UniProt P22736); experiment: Selectivity interaction (Reporter gene assay) EUB0001160a NR4A1; parameters: recommended concentration 1 uM
[33] = biological target: T4, Retinoic acid receptor RXR-alpha (Homo sapiens); experiment: Selectivity interaction (Reporter gene assay) EUB0001160a RXRA; parameters: recommended concentration 1 uM
[34] = biological target: Steroidogenic factor 1 (Homo sapiens) (UniProt Q13285); experiment: Selectivity interaction (Reporter gene assay) EUB0001160a NR5A1; parameters: recommended concentration 1 uM
[35] = biological target: T1, Nuclear receptor subfamily 2 group C member 1 (Homo sapiens); experiment: Selectivity interaction (Reporter gene assay) EUB0001160a NR2C1; parameters: recommended concentration 1 uM
[36] = biological target: T2, Alpha trans-inducing protein (Human alphaherpesvirus 1); experiment: Selectivity interaction (Reporter gene assay) EUB0001160a UL48; parameters: recommended concentration 1 uM

Nuclear receptor subfamily 4immunitygroup A member 1 (Homo sapiens), sequence (P22736 whole entry): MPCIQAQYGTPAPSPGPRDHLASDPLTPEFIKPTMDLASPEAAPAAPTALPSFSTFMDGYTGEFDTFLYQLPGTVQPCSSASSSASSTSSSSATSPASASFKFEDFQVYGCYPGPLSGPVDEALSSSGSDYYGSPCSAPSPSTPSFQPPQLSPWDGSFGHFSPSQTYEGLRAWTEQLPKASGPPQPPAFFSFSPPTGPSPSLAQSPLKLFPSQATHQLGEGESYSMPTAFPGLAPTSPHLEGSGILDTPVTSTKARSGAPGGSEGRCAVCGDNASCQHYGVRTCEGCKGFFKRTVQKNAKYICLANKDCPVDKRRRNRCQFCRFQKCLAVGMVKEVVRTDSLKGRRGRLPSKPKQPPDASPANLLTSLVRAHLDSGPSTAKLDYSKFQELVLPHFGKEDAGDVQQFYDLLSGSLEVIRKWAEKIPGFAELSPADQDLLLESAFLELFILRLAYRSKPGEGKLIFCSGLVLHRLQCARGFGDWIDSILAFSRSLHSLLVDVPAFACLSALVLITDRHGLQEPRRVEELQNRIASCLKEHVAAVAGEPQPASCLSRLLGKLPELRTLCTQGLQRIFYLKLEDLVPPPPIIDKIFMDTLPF
Steroidogenic factor 1 (Homo sapiens), sequence (Q13285 whole entry): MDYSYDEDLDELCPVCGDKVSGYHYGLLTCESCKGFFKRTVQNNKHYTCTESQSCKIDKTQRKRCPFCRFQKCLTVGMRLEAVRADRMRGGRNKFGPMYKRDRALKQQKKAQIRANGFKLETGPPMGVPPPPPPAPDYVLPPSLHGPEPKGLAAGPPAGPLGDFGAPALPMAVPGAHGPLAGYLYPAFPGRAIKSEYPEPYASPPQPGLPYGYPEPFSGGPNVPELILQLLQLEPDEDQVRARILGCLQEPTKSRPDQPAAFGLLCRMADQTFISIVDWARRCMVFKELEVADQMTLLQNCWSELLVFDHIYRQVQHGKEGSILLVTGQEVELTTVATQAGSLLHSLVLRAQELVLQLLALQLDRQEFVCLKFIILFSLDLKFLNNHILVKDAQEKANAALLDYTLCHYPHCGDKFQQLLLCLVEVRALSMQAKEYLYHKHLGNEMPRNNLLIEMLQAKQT
Nuclear receptor subfamily 2 group E member 1 (Homo sapiens), sequence (Q9Y466 whole entry): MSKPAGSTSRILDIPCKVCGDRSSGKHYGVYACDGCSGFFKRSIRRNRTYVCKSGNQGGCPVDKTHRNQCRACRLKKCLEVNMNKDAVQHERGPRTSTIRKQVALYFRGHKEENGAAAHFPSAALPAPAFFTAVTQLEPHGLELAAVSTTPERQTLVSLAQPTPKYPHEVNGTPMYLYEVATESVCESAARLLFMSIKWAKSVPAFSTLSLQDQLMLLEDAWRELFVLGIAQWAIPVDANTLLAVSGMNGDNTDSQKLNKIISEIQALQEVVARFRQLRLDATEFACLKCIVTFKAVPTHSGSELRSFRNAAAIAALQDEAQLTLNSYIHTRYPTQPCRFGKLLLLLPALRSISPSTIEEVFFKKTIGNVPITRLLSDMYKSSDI
T2 sequence (A0A5J6DW59 as listed by the source): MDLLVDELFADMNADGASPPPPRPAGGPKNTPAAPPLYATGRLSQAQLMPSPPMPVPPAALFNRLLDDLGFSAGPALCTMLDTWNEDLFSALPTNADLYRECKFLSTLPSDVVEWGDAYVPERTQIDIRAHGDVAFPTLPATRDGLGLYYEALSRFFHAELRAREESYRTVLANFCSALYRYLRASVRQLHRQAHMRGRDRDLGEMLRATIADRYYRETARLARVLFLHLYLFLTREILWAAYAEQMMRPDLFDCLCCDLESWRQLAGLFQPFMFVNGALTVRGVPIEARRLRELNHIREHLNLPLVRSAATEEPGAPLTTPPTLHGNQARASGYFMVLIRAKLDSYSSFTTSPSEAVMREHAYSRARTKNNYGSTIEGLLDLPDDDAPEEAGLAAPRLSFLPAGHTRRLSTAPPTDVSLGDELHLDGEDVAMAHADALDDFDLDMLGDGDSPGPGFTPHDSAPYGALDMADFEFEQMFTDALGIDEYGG
Nuclear receptor ROR-alpha (Homo sapiens), sequence (P35398 whole entry): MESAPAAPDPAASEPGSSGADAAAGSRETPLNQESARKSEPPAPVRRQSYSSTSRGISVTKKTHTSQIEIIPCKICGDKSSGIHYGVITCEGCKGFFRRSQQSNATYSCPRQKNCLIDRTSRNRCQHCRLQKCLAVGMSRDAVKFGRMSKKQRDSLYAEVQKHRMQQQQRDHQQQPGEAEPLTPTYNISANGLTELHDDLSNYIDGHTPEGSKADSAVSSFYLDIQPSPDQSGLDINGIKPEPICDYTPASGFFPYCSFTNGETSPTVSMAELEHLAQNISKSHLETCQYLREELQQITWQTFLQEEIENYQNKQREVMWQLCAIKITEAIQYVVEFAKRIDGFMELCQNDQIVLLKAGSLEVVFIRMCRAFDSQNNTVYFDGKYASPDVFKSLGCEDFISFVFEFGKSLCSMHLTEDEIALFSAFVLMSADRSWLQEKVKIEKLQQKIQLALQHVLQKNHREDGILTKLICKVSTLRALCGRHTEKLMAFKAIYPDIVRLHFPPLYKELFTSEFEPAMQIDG

Structure (SMILES): O=C(O)c1ccnc(N2CC(O)(c3ccc(OCc4c(-c5c(Cl)cccc5Cl)noc4C4CC4)cc3Cl)C2)c1
- Fold activation [15]: 1.18
- Fold activation [16]: 1.13
- Fold activation [17]: 1.01
- Fold activation [18]: 1.07
- Fold activation [19]: 5.01
- Relative activation [20]: 0.698%
- P-value [21]: 0.0011
- Fold activation [22]: 1.12

Structure (SMILES): CC(=O)Oc1ccc2c(c1)[C@@]1(C)CCC[C@](C)(C(=O)OC(=O)[C@@]3(C)CCC[C@]4(C)c5cc(OC(C)=O)ccc5CC[C@@H]34)[C@@H]1CC2
- Remaining activity [23]: 0.86
- Relative activation [24]: 0.795%
- Fold activation [25]: 1.06
- Fold activation [26]: 1.13
- P-value [27]: 0.00117
- Fold activation [28]: 1.11
- Remaining activity [29]: 0.928

The next lines start with the values.

- Remaining activity [1]: 0.425
- Remaining activity [2]: 0.509
- P-value [3]: 0.000227
- Remaining activity [4]: 0.942
- Remaining activity [5]: 0.851
- Remaining activity [6]: 0.899
- Remaining activity [7]: 0.972
Structure (SMILES): COc1cc(O)c(C(CC(=O)N2C[C@H](C)C[C@H](C)C2)c2ccc3c(c2)OCO3)c(OC)c1 (stereo partly specified)

- Relative activation [8]: 0.211%
- Remaining activity [9]: 0.822
- P-value [10]: 0.00195
- Remaining activity [11]: 0.943
- Remaining activity [12]: 0.818
- Remaining activity [13]: 0.846
- Remaining activity [14]: 0.634
Structure (SMILES): O=S(=O)(Nc1ccc(C(O)(C(F)(F)F)C(F)(F)F)cc1)c1cccs1

- Remaining activity [30]: 0.878
- Fold activation [31]: 1.21
- Remaining activity [32]: 0.922
- Relative activation [33]: 1.19%
- Remaining activity [34]: 0.561
- Fold activation [35]: 1.26
- P-value [36]: 0.00194
Structure (SMILES): OC(c1ccc(-c2ccc(CN3CCN(Cc4ccncc4)CC3)cc2)c(F)c1)(C(F)(F)F)C(F)(F)F
